Blank lines part the entries; values can stand above or below the compound they belong to.
Columns and labels:
healthy volunteers [1] = assay: REM suppression polysomnography (PSG) study of (R)-amisulpride (Example 5); type: in vivo, human
Protocol: REM suppression was the biomarker used to determine clinically-significant levels of 5-HT7 antagonism and its pharmacodynamics. REM suppression was assessed by total time in minutes spent in REM sleep and by the latency in minutes to REM sleep. […] REM suppression in human volunteers is an established translational biomarker useful to identify doses for antidepressant effects in patients.
The primary endpoint was REM sleep suppression as determined at post dose time points in the measures of latency to REM sleep, REM sleep time in minutes, and percent decrease in REM sleep time relative to total sleep time.
The REM suppression time value is the Least Square Mean differences from placebo, and the error bars represent the 90% confidence interval (CI).
The results presented in Tables 21-23 were determined from an analysis of the date based on a linear mixed model with terms for treatment, period, and treatment sequence as fixed effects, respective baseline PSG value as a continuous covariate, and treatment-by-baseline PSG interaction, and subject nested within sequence as a random effect, the Kenward and Roger correction for the degrees of freedom and an unstructured covariance structure to model the intrasubject correlation. The abbreviations used in Tables 21-23 are as follows: PSG=polysomnography; CI=confidence interval; LS=least-squares; REM=rapid eye movement; SE=standard error.

freely moving rats = assay: Sleep study of (R)-amisulpride, EEG/EMG (Example 3A); type: in vivo, rat; conditions: 10, 30, 100 mg/kg, p.o.
Protocol: Rapid eye movement (REM) sleep time, non-rapid eye movement (NREM) sleep time, WAKE time were measured using electroencephalogram (EEG) and electromyogram (EMG) recordings. […] EEG and EMG recordings were made for 6 hr starting at the beginning of the light phase. Vehicle (0.05 N HCl/0.5% Methyl Cellulose 400 solution) or dosing suspensions were orally administered 10 min before the beginning of light phase. The volume of administration was 5 mL/kg. The order of drug treatment varied pseudo-randomly and at least 1 week was allowed between the experiments for individual animals.
A radio transmitter (TL11M2-F40-EET; Data Science International, New Brighton, Minn., USA) was implanted subcutaneously in the back of anesthetized animals, and a pair of electrode wires was stereotaxically implanted into the skull in the following locations: one in the frontoparietal (2 mm anterior to the bregma and 2 mm left to the midline), and the other in parietal (5 mm posterior to the bregma and 2 mm right to the midline) areas. The EEG electrodes were fixed using dental cement. Electromyograms (EMG) were recorded from the dorsal neck muscle. […] EEG/EMG were recorded in the home cages in a soundproof box using Dataquest A.R.T. software (Data Science International, New Brighton, Minn., USA) at a sampling rate of 500 Hz. […]

clinical = conditions: human, in vivo
healthy volunteers [2] = assay: concentration-QTc analysis, linear mixed-effects model (Example 7A); type: in vivo, human
Protocol: The effect of amisulpride (enantiomers and total) on change-from-baseline QTcF and heart rate (ΔQTcF and ΔHR) was evaluated based on a linear mixed-effects model at each nominal post-dosing time point (“by-time point analysis”) using the intersection union test. In the concentration-QTc analysis (primary analysis), the full model included ΔQTcF as the dependent variable, time-matched plasma concentrations of R- and S- and total amisulpride enantiomers as the explanatory variates, centered baseline QTcF (i.e., baseline QTcF for individual subject subtracting the population mean baseline QTcF for all subjects) as an additional covariate, a fixed intercept, and random effect for both intercept and slopes per subject, when applicable. A pre-specified model selection procedure was then performed to choose a primary model from among the full model and reduced models from possible first order combinations (without quadratic and interaction terms) among these 3 analytes of concentrations of R- and S-enantiomers and total amisulpride (including models with only 1 analyte and with any 2 analytes).
The observations and a linear mixed-effects model parameters derived therefrom was used to estimate the ΔQTcF at the observed Cmax of the formulation Lots studied.

[3] = human, in vivo, po
[4] = Coukell et al 1996; cited from earlier work
[5] = linear mixed-effects model, total amisulpride concentration vs ΔQTcF

SMILES: CCN1CCC[C@@H]1CNC(=O)c1cc(S(=O)(=O)CC)c(N)cc1OC [(R)-amisulpride, R-4-Amino-N-[(1-ethyl-2-pyrrolidinyl)methyl]-5-(ethylsulfonyl)-2-methoxybenzamide]
tolerability (healthy volunteers [1]; healthy subjects): well tolerated
vital signs and ECGs (healthy volunteers [1]; in vivo): normal
NREM sleep time and WAKE time (freely moving rats): no observed effect
REM sleep duration (freely moving rats; light phase): reduced REM sleep duration in dose-dependent manner

concentration at 0.5 hr (clinical): 346 ng/mL
concentration at 1 hr (clinical): 294 ng/mL
concentration at 2 hr (clinical): 432 ng/mL
concentration at 3 hr (clinical): 516 ng/mL
concentration at 4 hr (clinical): 272 ng/mL
concentration at 6 hr (clinical): 163 ng/mL
concentration at 8 hr (clinical): 96.8 ng/mL
concentration at 10 hr (clinical): 69.9 ng/mL
concentration at 12 hr (clinical): 55.6 ng/mL
concentration at 24 hr (clinical): 21.2 ng/mL
concentration at 36 hr (clinical): 9.84 ng/mL
concentration at 48 hr (clinical): 7.02 ng/mL
concentration at 72 hr (clinical): 1.48 ng/mL
washout observed for blood plasma concentration [3]: approximately 24 hour
SMILES: CCN1CCCC1CNC(=O)c1cc(S(=O)(=O)CC)c(N)cc1OC (stereo not drawn) [amisulpride, 4-amino-N-[(1-ethylpyrrolidin-2-yl)methyl]-5-ethylsulfonyl-2-methoxy-benzamide]
estimated population slope of the concentration-QTc relationship (healthy volunteers [2]; 90% CI: 0.0257 to 0.0369): 0.031 ms per ng/mL
intercept of the concentration-QTc relationship (healthy volunteers [2]; 90% CI: −4.88 to 0.27): -2.3 ms
Centered Baseline Effect of concentration-QTc relationship model (healthy volunteers [2]; [5]): -0.23 ms
Intercept of concentration-QTc relationship model (healthy volunteers [2]; [5]): -2.31 ms
Total Amisulpride Slope of concentration-QTc relationship model (healthy volunteers [2]; [5]): 0.031 ms per ng/mL
terminal plasma half-life [4]: approximately 12 hours

From patent publication US11160758B2, “Modified release formulations and uses thereof” (Sunovion Pharmaceuticals Inc., priority 2019, dated 2021)
